This note sets out measurements from patent publication US20100204224A1, “AZACYCLIC COMPOUNDS AS INHIBITORS OF SENSORY NEURONE SPECIFIC SODIUM CHANNELS” (priority 2005, published 2010).

T1 sequence (Q9Y5Y9 whole entry): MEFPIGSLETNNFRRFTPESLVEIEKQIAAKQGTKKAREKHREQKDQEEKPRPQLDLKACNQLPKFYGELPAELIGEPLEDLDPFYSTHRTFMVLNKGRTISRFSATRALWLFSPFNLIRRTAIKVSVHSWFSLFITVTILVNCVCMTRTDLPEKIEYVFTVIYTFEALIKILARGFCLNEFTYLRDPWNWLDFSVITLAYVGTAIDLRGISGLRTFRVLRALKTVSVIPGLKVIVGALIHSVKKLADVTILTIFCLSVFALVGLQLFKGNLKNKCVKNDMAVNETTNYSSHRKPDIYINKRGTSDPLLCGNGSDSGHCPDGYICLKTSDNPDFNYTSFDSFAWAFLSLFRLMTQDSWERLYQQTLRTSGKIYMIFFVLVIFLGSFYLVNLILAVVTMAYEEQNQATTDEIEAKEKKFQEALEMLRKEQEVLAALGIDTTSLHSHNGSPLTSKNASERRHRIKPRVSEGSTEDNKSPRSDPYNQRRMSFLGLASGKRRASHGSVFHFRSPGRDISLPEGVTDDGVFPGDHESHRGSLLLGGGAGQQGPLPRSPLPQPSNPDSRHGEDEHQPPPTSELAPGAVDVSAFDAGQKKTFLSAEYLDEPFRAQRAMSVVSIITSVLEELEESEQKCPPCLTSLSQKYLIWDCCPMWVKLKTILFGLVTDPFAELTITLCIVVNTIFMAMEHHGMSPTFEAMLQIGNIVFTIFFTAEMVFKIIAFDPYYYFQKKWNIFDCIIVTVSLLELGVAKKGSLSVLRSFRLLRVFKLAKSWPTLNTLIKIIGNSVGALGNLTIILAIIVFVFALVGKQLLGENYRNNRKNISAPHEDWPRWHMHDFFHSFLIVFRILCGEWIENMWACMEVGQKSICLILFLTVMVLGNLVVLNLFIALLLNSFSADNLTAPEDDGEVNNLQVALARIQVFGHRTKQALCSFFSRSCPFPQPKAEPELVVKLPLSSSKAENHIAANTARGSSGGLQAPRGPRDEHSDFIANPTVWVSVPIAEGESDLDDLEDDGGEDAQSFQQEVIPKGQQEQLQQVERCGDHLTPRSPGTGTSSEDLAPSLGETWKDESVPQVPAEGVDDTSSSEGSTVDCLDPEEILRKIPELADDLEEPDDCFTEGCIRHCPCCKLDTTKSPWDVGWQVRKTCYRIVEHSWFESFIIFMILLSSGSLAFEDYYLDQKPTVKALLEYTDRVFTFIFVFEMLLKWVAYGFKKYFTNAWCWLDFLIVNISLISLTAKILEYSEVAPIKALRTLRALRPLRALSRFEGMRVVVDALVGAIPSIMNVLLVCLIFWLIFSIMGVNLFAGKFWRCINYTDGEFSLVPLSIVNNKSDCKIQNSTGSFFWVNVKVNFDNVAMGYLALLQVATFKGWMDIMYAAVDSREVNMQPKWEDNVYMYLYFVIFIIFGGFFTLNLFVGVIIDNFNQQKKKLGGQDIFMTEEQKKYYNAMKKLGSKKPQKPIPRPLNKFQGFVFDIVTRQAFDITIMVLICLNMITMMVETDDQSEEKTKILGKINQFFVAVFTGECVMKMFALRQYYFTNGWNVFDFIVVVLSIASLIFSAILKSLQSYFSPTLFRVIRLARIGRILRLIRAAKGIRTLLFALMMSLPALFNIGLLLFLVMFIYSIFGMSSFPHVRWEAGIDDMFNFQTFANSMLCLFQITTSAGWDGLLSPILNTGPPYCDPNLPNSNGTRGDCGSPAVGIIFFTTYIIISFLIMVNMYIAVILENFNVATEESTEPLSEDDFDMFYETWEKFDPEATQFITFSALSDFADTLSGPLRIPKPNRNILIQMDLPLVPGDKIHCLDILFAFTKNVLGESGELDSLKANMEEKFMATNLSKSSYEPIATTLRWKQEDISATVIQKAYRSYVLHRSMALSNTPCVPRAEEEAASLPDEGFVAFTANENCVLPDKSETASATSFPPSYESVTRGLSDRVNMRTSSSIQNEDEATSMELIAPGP

One assay has as its target T1, human Nav1.8 (hNav1.8) ion channel (Homo sapiens, UniProt Q9Y5Y9).
T1 construct: expressed in transfected cells
As to the kind of experiment: Inhibition of human Nav1.8 stably expressed in SH-SY-5Y cells (membrane potential dye fluorescence assay). It is filed as cell-based. The conditions noted are these: SH-SY-5Y hNav1.8 cells; FLIPR membrane potential dye; 10 μM pyrethroid, 250 nM TTX; test concentration range 100 μM-0.05 μM; read-out: hNav1.8 IC50.
A word on the IC50: it is the midpoint of a concentration-inhibition curve. Consider `Cc1ccsc1C(C)N1CC2CC1CN2C(=O)Nc1ccc(Oc2ccccc2)cc1` (centres unmarked) [Example 14, 5-[1-(3-Methyl-thiophen-2-yl)-ethyl]-2,5-diaza-bicyclo[2.2.1]heptane-2-carboxylic acid (4-phenoxy-phenyl)-amide], for which the IC50 was 900 nM.

As to `O=C(Nc1ccc(Oc2ccc(F)cc2)cc1)N1CCC2(CCN(C3Cc4ccccc4C3)C2)C1` (centres unmarked) [Example 104, 7-Indan-2-yl-2,7-diaza-spiro[4.4]nonane-2-carboxylic acid [4-(4-fluoro-phenoxy)-phenyl]-amide], the IC50 was found to be 430 nM.

Consider `CC(C(C#N)c1ccccc1)N1CC2CC1CN2C(=O)Nc1ccc(C(F)(F)F)cc1` (centres unmarked) [Example 81, 5-(2-Cyano-1-methyl-2-phenyl-ethyl)-2,5-diaza-bicyclo[2.2.1]heptane-2-carboxylic acid (4-trifluoromethyl-phenyl)-amide], for which the IC50 was 26200 nM.

Take `Cc1ccccc1C(C)N1CC2CC1CN2C(=O)Nc1ccc(OCCN2CCOCC2)cc1` (centres unmarked) [Example 44, 5-(1-o-Tolyl-ethyl)-2,5-diaza-bicyclo[2.2.1]heptane-2-carboxylic acid [4-(2-morpholin-4-yl-ethoxy)-phenyl]-amide]: the IC50 amounted to 26800 nM.

For the compound `Cc1ccc(Oc2ccc(NC(=O)N3CC4CC3CN4C(C)c3ccccc3Cl)cc2)cc1` (centres unmarked) [Example 139, 5-[1-(2-Chloro-phenyl)-ethyl]-2,5-diaza-bicyclo[2.2.1]heptane-2-carboxylic acid (4-p-tolyloxy-phenyl)-amide], the IC50 is 1160 nM.

As for `O=C(Nc1ccc(Cc2ccccc2)cc1)N1CC2CC1CN2C1Cc2ccc(F)cc2C1` (centres unmarked) [Example 124, 5-(5-Fluoro-indan-2-yl)-2,5-diaza-bicyclo[2.2.1]heptane-2-carboxylic acid (4-benzyl-phenyl)-amide], the IC50 was determined as 640 nM.

In the case of `CCOCCOc1ccc(NC(=O)N2CC3CC2CN3C(C)c2ccccc2C)cc1` (centres unmarked) [Example 17, 5-(1-o-Tolyl-ethyl)-2,5-diaza-bicyclo[2.2.1]heptane-2-carboxylic acid [4-(2-ethoxy-ethoxy)-phenyl]-amide], the IC50 is 28000 nM.

Turning to `Cc1cc(F)ccc1C(C)N1CC2CC1CN2C(=O)Nc1ccc(C(F)(F)F)cc1` (centres unmarked) [Example 65, 5-[1-(4-Fluoro-2-methyl-phenyl)-ethyl]-2,5-diaza-bicyclo[2.2.1]heptane-2-carboxylic acid (4-trifluoromethyl-phenyl)-amide], the IC50 turned out to be 600 nM.

For `CC(c1ccc(F)cc1)N1CC2CC1CN2C(=O)Nc1cccc(Oc2ccccc2)c1` (centres unmarked) [Example 49, 5-[1-(4-Fluoro-phenyl)-ethyl]-2,5-diaza-bicyclo[2.2.1]heptane-2-carboxylic acid (3-phenoxy-phenyl)-amide], the IC50 was 1080 nM.

With `Cc1ccccc1C(C)N1CC2CC1CN2C(=O)Nc1ccc(OCC2CCCCO2)cc1` (centres unmarked) [Example 25, 5-(1-o-Tolyl-ethyl)-2,5-diaza-bicyclo[2.2.1]heptane-2-carboxylic acid [4-(tetrahydro-pyran-2-ylmethoxy)-phenyl]-amide], the IC50 was 5380 nM.

Regarding `CC(c1ccc(Cl)cc1Cl)N1CC2CC1CN2C(=O)Nc1ccc(C(F)(F)F)cc1` (centres unmarked) [Example 126, 5-[1-(2,4-Dichloro-phenyl)-ethyl]-2,5-diaza-bicyclo[2.2.1]heptane-2-carboxylic acid (4-trifluoromethyl-phenyl)-amide], the 50% inhibitory concentration (IC50) was determined as 22900 nM.

For the compound `CC(c1ccccc1Cl)N1CC2CC1CN2C(=O)N(C)c1ccc(Oc2ccc(F)cc2)cc1` (centres unmarked) [Example 143, 5-[1-(2-Chloro-phenyl)-ethyl]-2,5-diaza-bicyclo[2.2.1]heptane-2-carboxylic acid [4-(4-fluoro-phenoxy)-phenyl]-methyl-amide], the IC50 amounted to 3210 nM.

`Cc1ccccc1C(C)N1CC2CC1CN2C(=O)Nc1ccc(OCc2ccccc2)cc1` (centres unmarked) [Example 31, 5-(1-o-Tolyl-ethyl)-2,5-diaza-bicyclo[2.2.1]heptane-2-carboxylic acid (4-benzyloxy-phenyl)-amide]: the IC50 came out at 600 nM.

Turning to `Cc1ccccc1C(C)N1CC2CC1CN2C(=O)Nc1ccc(OC2CCN(Cc3ccccc3)CC2)cc1` (centres unmarked) [Example 40, 5-(1-o-Tolyl-ethyl)-2,5-diaza-bicyclo[2.2.1]heptane-2-carboxylic acid [4-(1-benzyl-piperidin-4-yloxy)-phenyl]-amide], the IC50 is 2010 nM.

For the compound `CC(c1c(F)cccc1F)N1CC2CC1CN2C(=O)Nc1ccc(C(F)(F)F)cc1` (centres unmarked) [Example 13, 5-[1-(2,6-Difluoro-phenyl)-ethyl]-2,5-diaza-bicyclo[2.2.1]heptane-2-carboxylic acid (4-trifluoromethyl-phenyl)-amide], the IC50 amounted to 6360 nM.

Regarding `O=C(Nc1ccc(C(F)(F)F)cc1)N1CC2CC1CN2C1CCc2ccccc2C1` (centres unmarked) [Example 77, 5-(1,2,3,4-Tetrahydro-naphthalen-2-yl)-2,5-diaza-bicyclo[2.2.1]heptane-2-carboxylic acid (4-trifluoromethyl-phenyl)-amide], the IC50 was found to be 590 nM.

`O=C(Nc1ccc(Oc2ccc(F)cc2)cc1)N1CC2CC1CN2C1Cc2ccccc2C1` (centres unmarked) [Example 106, 5-Indan-2-yl-2,5-diaza-bicyclo[2.2.1]heptane-2-carboxylic acid [4-(4-fluoro-phenoxy)-phenyl]-amide]: the concentration for half-maximal inhibition (IC50) is 170 nM.

Regarding `CC(c1ccccc1Cl)N1CC2CN(C(=O)Nc3ccc(Oc4ccc(F)cc4)cc3)CC2C1` (centres unmarked) [Example 107, 5-[1-(2-Chloro-phenyl)-ethyl]-hexahydro-pyrrolo[3,4-c]pyrrole-2-carboxylic acid [4-(4-fluoro-phenoxy)-phenyl]-amide], the IC50 stood at 1130 nM.

Regarding `CC(Cc1ccccc1F)N1CC2CC1CN2C(=O)Nc1ccc(C(F)(F)F)cc1` (centres unmarked) [Example 79, 5-[2-(2-Fluoro-phenyl)-1-methyl-ethyl]-2,5-diaza-bicyclo[2.2.1]heptane-2-carboxylic acid (4-trifluoromethyl-phenyl)-amide], the IC50 stood at 780 nM.

In the case of `CC(c1ccccc1Cl)N1CC2CC1CN2C(=O)c1ccc(Oc2cccc(F)c2)cc1` (centres unmarked) [Example 175, {5-[1-(2-Chloro-phenyl)-ethyl]-2,5-diaza-bicyclo[2.2.1]hept-2-yl}-[4-(3-fluoro-phenoxy)-phenyl]-methanone], the IC50 turned out to be 640 nM.

Turning to `COc1ccccc1CC(C)N1CC2CC1CN2C(=O)Nc1ccc(C(F)(F)F)cc1` (centres unmarked) [Example 86, 5-[2-(2-Methoxy-phenyl)-1-methyl-ethyl]-2,5-diaza-bicyclo[2.2.1]heptane-2-carboxylic acid (4-trifluoromethyl-phenyl)-amide], the IC50 was determined as 670 nM.

With `CC(c1ccccn1)N1CC2CC1CN2C(=O)c1ccc(Oc2ccc(F)cc2)cc1` (centres unmarked) [Example 181, [4-(4-Fluoro-phenoxy)-phenyl]-[5-(1-pyridin-2-yl-ethyl)-2,5-diaza-bicyclo[2.2.1]hept-2-yl]-methanone], the IC50 came out at 9930 nM.

For the compound `CC(c1ccc(F)cc1Cl)N1CC2CC1CN2C(=O)Nc1ccc(Oc2ccc(F)cc2)cc1` (centres unmarked) [Example 133, 5-[1-(2-Chloro-4-fluoro-phenyl)-ethyl]-2,5-diaza-bicyclo[2.2.1]heptane-2-carboxylic acid [4-(4-fluoro-phenoxy)-phenyl]-amide], the IC50 worked out at 1190 nM.

On to `CC(c1c(F)cccc1F)N1CC2CC1CN2C(=O)Nc1ccc(Oc2ccccc2)cc1` (centres unmarked) [Example 9, 5-[1-(2,6-Difluoro-phenyl)-ethyl]-2,5-diaza-bicyclo[2.2.1]heptane-2-carboxylic acid (4-phenoxy-phenyl)-amide], for which the IC50 was found to be 870 nM.

With `Cc1ccccc1C(C)N1CC2CC1CN2C(=O)Nc1ccc(Oc2ccccc2)cc1` (centres unmarked) [Example 4, 5-(1-o-Tolyl-ethyl)-2,5-diaza-bicyclo[2.2.1]heptane-2-carboxylic acid (4-phenoxy-phenyl)-amide], the IC50 is 320 nM.

For the compound `Cc1ccccc1C(C)N1CC2CC1CN2C(=O)Nc1ccc(OCC2CCCO2)cc1` (centres unmarked) [Example 26, 5-(1-o-Tolyl-ethyl)-2,5-diaza-bicyclo[2.2.1]heptane-2-carboxylic acid [4-(tetrahydro-furan-2-ylmethoxy)-phenyl]-amide], the IC50 is 16700 nM.

Consider `CC(c1ccc(Cl)cc1Cl)N1CC2CC1CN2C(=O)Nc1ccc(Oc2ccc(Cl)cc2)cc1` (centres unmarked) [Example 122, 5-[1-(2,4-Dichloro-phenyl)-ethyl]-2,5-diaza-bicyclo[2.2.1]heptane-2-carboxylic acid [4-(4-chloro-phenoxy)-phenyl]-amide], for which the IC50 was 19200 nM.

As to `CC(c1ccccn1)N1CC2CC1CN2C(=O)c1ccc(Oc2cccc(C#N)c2)cc1` (centres unmarked) [Example 180, 3-{4-[5-(1-Pyridin-2-yl-ethyl)-2,5-diaza-bicyclo[2.2.1]heptane-2-carbonyl]-phenoxy}-benzonitrile], the IC50 came to 4650 nM.

For the compound `CC(c1ccc(C#N)cc1)N1CC2CC1CN2C(=O)Nc1ccc(Oc2ccc(F)cc2)cc1` (centres unmarked) [Example 90, 5-[1-(4-Cyano-phenyl)-ethyl]-2,5-diaza-bicyclo[2.2.1]heptane-2-carboxylic acid [4-(4-fluoro-phenoxy)-phenyl]-amide], the IC50 was found to be 1400 nM.

Still in this assay, the particulars now being: hNav1.8 IC50, SH-SY-5Y hNav1.8 cells; FLIPR membrane potential dye; 10 μM pyrethroid, 250 nM TTX; test concentration range 100 μM-0.05 μM.
On to `O=C(Cc1ccc(Oc2ccc(F)cc2)cc1)N1CC2CC1CN2C1CCc2cc(F)ccc2C1` (centres unmarked) [Example 144, 2-[4-(4-Fluoro-phenoxy)-phenyl]-1-[5-(6-fluoro-1,2,3,4-tetrahydro-naphthalen-2-yl)-2,5-diaza-bicyclo[2.2.1]hept-2-yl]-ethanone], for which the midpoint of inhibition, the IC50, lay at 1600 nM.

As for `Cc1ccccc1C(C)N1CC2CC1CN2C(=O)Nc1ccc(Oc2ccc(F)cc2)cc1` (single isomer, unassigned) [Example 74, 5-(1-o-Tolyl-ethyl)-2,5-diaza-bicyclo[2.2.1]heptane-2-carboxylic acid [4-(4-fluoro-phenoxy)-phenyl]-amide], the IC50 turned out to be 110 nM.

The compound `Cc1ccccc1C(C)N1CC2CC1CN2C(=O)Cc1ccc(Oc2ccccc2)cc1` (centres unmarked) [Example 36, 2-(4-Phenoxy-phenyl)-1-[5-(1-o-tolyl-ethyl)-2,5-diaza-bicyclo[2.2.1]hept-2-yl]-ethanone] had an IC50 of 810 nM.
